For series [1], the system named is Ugt1a1. In words: Western blot protein level after 7 days gavage: UGT1A1. In kind it is in vivo. The note with it: mice, p.o. 7 days; liver. The method, then:
Mice were randomly divided into four groups, with eight animals in each group. The mice received oral pretreatment with N-hydap for 7 days at doses of 2, 5, and 10 mg/kg/day, which were considered as the low dose, medium dose, and high dose, respectively. Correspondingly, the control group received PBS. On the 8th day, the liver and kidneys were removed, and organs from eight mice per group were combined to prepare MLMs and MKMs using the detailed procedures above. Subsequently, we determined the activity of CYP and UGT enzymes by specific substrate metabolized with MLMs (0.5 mg/mL) and MKMs (0.2 mg/mL) in vitro. […] In the ex vivo experiments, the activity of enzymes was measured by quantifying the production of various metabolites (nM/mg protein/min). […] The measurements were performed using multiple reaction monitoring (MRM) transitions, which are specific mass spectrometry transitions used for quantification. […]
After 7 days of N-hydap gavage, the liver and kidney tissues were lysed using RIPA buffer supplemented with a 1% protease inhibitor cocktail. […] Western blot signals were detected using an ECL chemiluminescence detection agent. The relative intensity of each protein band was scanned and quantified using Image J software.
In general terms: In western blotting, separated proteins are transferred to a membrane and probed.

Series [2] in a line: Stability in tissue homogenate. In kind it is in vitro ADME. The method, then: The stability of the KPI solution was examined after storage at 4 °C for 24 h and incubation at 37 °C for 4 h, which was conducted using the QC samples at three concentrations (five samples for each concentration). Stability in plasma and tissue homogenate was assessed by testing samples stored at both 4 °C and room temperature for 24 h.

Turning to `CC1CCC2C(C=CC(C)C2C(=O)c2c(O)c(C3(O)CCC(O)C4OC43)cn(O)c2=O)C1` (stereo not shown) [N-hydap, N-Hydroxyapiosporamide], the “protein levels of UGT1A1” value in series [1] is “slightly down-regulated”. Besides, the “stability, Accuracy (Bias, %)” value in series [2] (60 nM, 4℃ for 24h) is listed as 102.62%; in series [2] (60 nM, room temperature for 24h), 103.17%; in series [2] (150 nM, 4℃ for 24h), 103.40%; in series [2] (150 nM, room temperature for 24h), 99.13%; in series [2] (500 nM, 4℃ for 24h), 105.16%; in series [2] (500 nM, room temperature for 24h), 93.38%.

The values are drawn from paper PMC11109052, “Metabolism characterization and toxicity of N-hydap, a marine candidate drug for lung cancer therapy by LC–MS method” (Natural Products and Bioprospecting, 2024).
